Data as given in ChEMBL document CHEMBL1201862, “PubChem BioAssay data set” (2004).
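Test compounds were applied to cells in 96-well plates for 48 hours at 5 doses. GI50 is the concentration that inhibits growth by half.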 The source made the active and inactive calls. No stated cut-off is given here; in the data, active = GI50 up to about 1.1 µM and inactive = higher.

Columns and labels:
Experiment in all cases: inhibition of tumour cell growth, NCI panel, 48 h
786-0 = test system: 786-0
A498 = test system: A498
A549 = test system: A549
ACHN = test system: ACHN
CAKI-1 = test system: CAKI-1
CCRF-CEM = test system: CCRF-CEM
COLO 205 = test system: COLO 205
DLD-1 = test system: DLD-1
DMS-273 = test system: DMS-273
EKVX = test system: EKVX
HCC 2998 = test system: HCC 2998
HCT-116 = test system: HCT-116
HCT-15 = test system: HCT-15
HL-60 = test system: HL-60
HOP-62 = test system: HOP-62
HT-29 = test system: HT-29
IGROV-1 = test system: IGROV-1
K562 = test system: K562
KM-20L2 = test system: KM-20L2
KM12 = test system: KM12
LOX IMVI = test system: LOX IMVI
LXFL 529 = test system: LXFL 529
M14 = test system: M14
M19-MEL = test system: M19-MEL
MOLT-4 = test system: MOLT-4
Malme-3M = test system: Malme-3M
NCI-H226 = test system: NCI-H226
NCI-H23 = test system: NCI-H23
NCI-H460 = test system: NCI-H460
NCI-H522 = test system: NCI-H522
OVCAR-3 = test system: OVCAR-3
OVCAR-4 = test system: OVCAR-4
OVCAR-5 = test system: OVCAR-5
OVCAR-8 = test system: OVCAR-8
RXF 393 = test system: RXF 393
RXF 631 = test system: RXF 631
SF-268 = test system: SF-268
SF-295 = test system: SF-295
SF-539 = test system: SF-539
SK-MEL-28 = test system: SK-MEL-28
SK-MEL-2 = test system: SK-MEL-2
SK-MEL-5 = test system: SK-MEL-5
SK-OV-3 = test system: SK-OV-3
SN12C = test system: SN12C
SNB-19 = test system: SNB-19
SNB-75 = test system: SNB-75
SNB-78 = test system: SNB-78
SR = test system: SR
SW-620 = test system: SW-620
TK-10 = test system: TK-10
U-251 = test system: U-251
UACC-257 = test system: UACC-257
UACC-62 = test system: UACC-62
UO-31 = test system: UO-31
XF498 = test system: XF498
DMS-114 = test system: DMS-114
HOP-18 = test system: HOP-18
RPMI-8226 = test system: RPMI-8226
HOP-92 = test system: HOP-92

Measured: GI50

O=C(/C=C/c1cccc([N+](=O)[O-])c1)c1ccc([N+](=O)[O-])cc1
inactive: 786-0 > 100 µM | A498 > 100 µM | A549 > 100 µM | ACHN > 100 µM | CAKI-1 > 100 µM | CCRF-CEM > 100 µM | COLO 205 > 100 µM | DLD-1 > 100 µM | DMS-273 > 100 µM | EKVX > 100 µM | HCC 2998 > 100 µM | HCT-116 > 100 µM | HL-60 > 100 µM | HOP-62 > 100 µM | HT-29 > 100 µM | IGROV-1 > 100 µM | K562 > 100 µM | KM-20L2 > 100 µM | KM12 > 100 µM | LOX IMVI > 100 µM | LXFL 529 > 100 µM | M14 > 100 µM | M19-MEL > 100 µM | MOLT-4 > 100 µM | Malme-3M > 100 µM | NCI-H226 > 100 µM | NCI-H23 > 100 µM | NCI-H460 > 100 µM | NCI-H522 > 100 µM | OVCAR-3 > 100 µM | OVCAR-4 > 100 µM | OVCAR-5 > 100 µM | OVCAR-8 > 100 µM | RXF 393 > 100 µM | RXF 631 > 100 µM | SF-268 > 100 µM | SF-295 > 100 µM | SF-539 > 100 µM | SK-MEL-28 > 100 µM | SK-MEL-2 > 100 µM | SK-MEL-5 > 100 µM | SK-OV-3 > 100 µM | SN12C > 100 µM | SNB-19 > 100 µM | SNB-75 > 100 µM | SNB-78 > 100 µM | SR > 100 µM | SW-620 > 100 µM | TK-10 > 100 µM | U-251 > 100 µM | UACC-257 > 100 µM | UACC-62 > 100 µM | UO-31 > 100 µM | XF498 > 100 µM
> 100 µM: HCT-15

CC(C(=O)c1ccc(Cl)cc1)/C(=N/NC(=O)NN)C(=O)Nc1cccc(C(F)(F)F)c1 (centres undefined)
inactive: 786-0 > 100 µM | A498 > 100 µM | A549 > 100 µM | ACHN > 100 µM | CAKI-1 > 100 µM | CCRF-CEM > 100 µM | COLO 205 > 100 µM | DLD-1 > 100 µM | DMS-114 > 100 µM | DMS-273 > 100 µM | EKVX > 100 µM | HCC 2998 > 100 µM | HCT-116 > 100 µM | HL-60 > 100 µM | HOP-18 56.5 µM | HT-29 > 100 µM | IGROV-1 > 100 µM | K562 > 100 µM | KM-20L2 > 100 µM | LOX IMVI > 100 µM | LXFL 529 > 100 µM | M14 > 100 µM | M19-MEL > 100 µM | MOLT-4 > 100 µM | Malme-3M > 100 µM | NCI-H226 > 100 µM | NCI-H23 > 100 µM | NCI-H460 > 100 µM | OVCAR-3 > 100 µM | OVCAR-4 > 100 µM | OVCAR-5 > 100 µM | OVCAR-8 > 100 µM | RPMI-8226 > 100 µM | RXF 393 22.8 µM | RXF 631 > 100 µM | SF-268 > 100 µM | SF-295 > 100 µM | SF-539 > 100 µM | SK-MEL-28 > 100 µM | SK-MEL-2 > 100 µM | SK-MEL-5 > 100 µM | SK-OV-3 > 100 µM | SN12C > 100 µM | SNB-19 > 100 µM | SNB-75 > 100 µM | SNB-78 > 100 µM | SW-620 > 100 µM | TK-10 > 100 µM | U-251 > 100 µM | UACC-257 > 100 µM | UACC-62 > 100 µM | UO-31 > 100 µM | XF498 > 100 µM
> 100 µM: HCT-15

CC1(CO)C(=O)OC12CCCCC2 (centres undefined)
inactive: 786-0 > 100 µM | A498 44.4 µM | A549 > 100 µM | CAKI-1 > 100 µM | CCRF-CEM > 100 µM | COLO 205 > 100 µM | DLD-1 > 100 µM | DMS-114 > 100 µM | DMS-273 > 100 µM | EKVX > 100 µM | HCC 2998 > 100 µM | HCT-116 > 100 µM | HL-60 > 100 µM | HOP-62 > 100 µM | HOP-92 > 100 µM | HT-29 > 100 µM | IGROV-1 > 100 µM | K562 > 100 µM | KM12 > 100 µM | LOX IMVI > 100 µM | LXFL 529 > 100 µM | M14 > 100 µM | M19-MEL > 100 µM | MOLT-4 > 100 µM | Malme-3M > 100 µM | NCI-H226 > 100 µM | NCI-H23 > 100 µM | NCI-H522 > 100 µM | OVCAR-3 > 100 µM | OVCAR-4 > 100 µM | OVCAR-8 > 100 µM | RPMI-8226 > 100 µM | RXF 631 > 100 µM | SF-268 > 100 µM | SF-295 > 100 µM | SF-539 > 100 µM | SK-MEL-28 > 100 µM | SK-MEL-2 > 100 µM | SK-OV-3 > 100 µM | SN12C > 100 µM | SNB-19 > 100 µM | SNB-75 84.5 µM | SNB-78 > 100 µM | SR 84.9 µM | SW-620 > 100 µM | TK-10 > 100 µM | UACC-257 > 100 µM | UACC-62 > 100 µM | UO-31 63.4 µM | XF498 > 100 µM
